Reference: ChEMBL document CHEMBL5608113, “Targeting of CAF-induced therapy resistance in CRC organoid-stroma co-cultures” (2024)

Key:
Assay type in all cases: functional, Homo sapiens
Settings in all cases: Homo sapiens, read-out: Cell Viability; for viability at 10 µM: Concentration 10 uM; for viability at 1 µM: Concentration 1 uM
[1] = test system: Colon cancer organoid; experiment: Targeting of F14 CAF-induced therapy resistance in O14 CRC organoid-stroma co-culture. Cell viability is reported without Gefitinib.
[2] = test system: Colon cancer organoid; experiment: Targeting of F14 CAF-induced therapy resistance in O14 CRC organoid-stroma co-culture. Cell viability is reported with Gefitinib.
[3] = test system: Colon cancer organoid; experiment: Targeting of F14 CAF-induced therapy resistance in O23 CRC organoid-stroma co-culture. Cell viability is reported without Gefitinib.
[4] = test system: Colon cancer organoid; experiment: Targeting of F14 CAF-induced therapy resistance in O23 CRC organoid-stroma co-culture. Cell viability is reported with Gefitinib.
[5] = test system: Colon cancer organoid; experiment: Targeting of F14 CAF-induced therapy resistance in O23 CRC organoid-stroma co-culture. Cell viability is reported with SN-38.

Row | Compound | viability at 10 µM [1] [%] | viability at 10 µM [2] [%] | viability at 10 µM [3] [%] | viability at 10 µM [4] [%] | viability at 10 µM [5] [%] | viability at 1 µM [1] [%] | viability at 1 µM [2] [%] | viability at 1 µM [3] [%] | viability at 1 µM [4] [%] | viability at 1 µM [5] [%]
1 | Cc1c(NC(=O)COc2ccc(Cl)cc2C(=O)c2cc(F)cc(C(F)(F)F)c2)ccc(C(=O)O)c1F [BI 2540] | 124 | 64.5 | 132 | 79.4 | 67.8 | – | – | – | – | –
2 | O=C(NC[C@@H]1[C@H]2CN(C(=O)OCc3cc(C(F)(F)F)cc(C(F)(F)F)c3)C[C@@H]12)c1ccc2[nH]nnc2c1 [BI 2545] | 105 | 43 | 142 | 83.8 | 105 | – | – | – | – | –
3 | Cc1nccc(COC(=O)N2C[C@@H]3[C@@H](CNC(=O)c4ccc5[nH]nnc5c4)[C@@H]3C2)n1 [BI 3017] | 7.82 | 7.21 | 161 | 38.3 | 76 | – | – | – | – | –
4 | CCS(=O)(=O)c1cc2cc(C[C@@](O)(CC(C)(C)c3ccc(F)cc3C(N)=O)C(F)(F)F)[nH]c2cn1 [BI 3047] | – | – | – | – | – | 137 | 44.9 | 139 | 46.6 | 71
5 | CCOC(=O)c1cc2cc(-c3cc(C(=O)NCc4ccc(C(=O)O)cc4)nn3C)ccc2[nH]1 [BI 4394] | – | – | – | – | – | 95.7 | 59.3 | 148 | 77.1 | 83.8
6 | Cn1nc(C(=O)NCc2ccc(C(=O)O)cc2)cc1-c1ccc2[nH]ccc2c1 [BI 4395] | 95.3 | 62.1 | 124 | 52.8 | 77.4 | – | – | – | – | –
7 | Cn1c(C2(NC(=O)c3ccc(NCC4CCCCC4)nc3)CCC2)nc2ccc(/C=C/C(=O)O)cc21 [BI 7656] | 101 | 45.1 | 131 | 77.7 | 69.9 | – | – | – | – | –
8 | CS(=O)(=O)NCC[C@H](NC(=O)c1cncc2c1cnn2-c1ccc(F)cc1)c1ccnc(S(C)(=O)=O)c1 [BI 9307] | – | – | – | – | – | 105 | 37.4 | 114 | 116 | 70.6
9 | C[C@@]1(Cc2ccc(C#N)cc2)C(=O)N(c2cc(Cl)cc(Cl)c2)c2ncc(C(=O)NC3(c4nc(C5CCC5)no4)CC3)n21 [BI 9446] | 80.5 | 23 | 80.2 | 43 | 66.3 | – | – | – | – | –
10 | CC(=O)N1CCC(c2ccc(C(=O)NC(=N)N)cc2C(F)(F)F)CC1 [BI 9627] | 102 | 42.9 | 109 | 53.2 | 106 | – | – | – | – | –
11 | CCC(=O)N[C@H]1CC[C@@H](C(=O)N(C)c2ccc(-c3nc4ccccc4o3)cc2)C1 [BI 99179] | 48.5 | 44.8 | 168 | 82 | 124 | – | – | – | – | –
12 | CCC(=O)N[C@@H]1CC[C@H](C(=O)N(C)c2ccc(-c3nc4ccccc4o3)cc2)C1 [BI 99990] | 150 | 37.6 | 154 | 69.7 | 100 | – | – | – | – | –
13 | CS(=O)(=O)c1cc(C2(NC(=O)c3cncc4c3cnn4-c3ccc(F)cc3)CC2)ccn1 [BI 639667] | – | – | – | – | – | 126 | 39 | 135 | 107 | 94.7
14 | CCS(=O)(=O)c1cc2cc(C[C@](O)(CC(C)(C)c3ccc(F)cc3C(N)=O)C(F)(F)F)[nH]c2cn1 [BI 653048] | 100 | 42.7 | 161 | 68.4 | 110 | – | – | – | – | –
15 | CN(C)C(=O)Cn1cc(-c2nc([C@@](C)(c3ccc(-c4cnc(N)nc4)cc3)C3CC3)no2)cn1 [BI 665915] | – | – | – | – | – | 102 | 56.8 | 181 | 79.9 | 85.2
